In ChEMBL document CHEMBL4811304, “Design, synthesis and biological evaluation of dual mTOR/HDAC6 inhibitors in MDA-MB-231 cells” (Bioorg Med Chem Lett, 2021):
The source made the active and inactive calls. The calls are words filed in the database; no cut-off is given here.

What was measured:
[1] = target: T1, Serine/threonine-protein kinase mTOR (Homo sapiens, UniProt P42345); assay: Inhibition of mTOR (unknown origin)
[2] = target: T1, Serine/threonine-protein kinase mTOR; assay: Inhibition of mTOR (unknown origin) at 0.5 uM relative to control
MDA-MB-436 = assay: Antiproliferative activity against human MDA-MB-436 cells measured after 48 hrs; format: functional, cell-based; conditions: MDA-MB-436, 48 h
MCF-10A = assay: Cytotoxicity against human MCF-10A cells assessed as increase in cell viability; format: cell-based
Histone deacetylase 2 [3] = target: T2, Histone deacetylase 2 (Homo sapiens, UniProt Q92769); assay: Binding affinity to HDAC2 in human MDA-MB-231 cells assessed as increase in thermal stability at 10 uM measured at 6 hrs by CETSA; format: cell-based
Histone deacetylase 1 = Histone deacetylase 1 (Homo sapiens, UniProt Q13547); assay: Inhibition of HDAC1 (unknown origin)
Histone deacetylase 2 [4] = target: T2, Histone deacetylase 2; assay: Inhibition of HDAC2 (unknown origin)
[5] = target: T3, Protein deacetylase HDAC6 (Homo sapiens) (UniProt Q9UBN7); assay: Inhibition of HDAC6 in human MDA-MB-231 cells assessed as increase in acetylated lysine at 5 to 20 uM by Western blot analysis; format: cell-based; conditions: dose 5-20 µM
T3 sequence (whole entry): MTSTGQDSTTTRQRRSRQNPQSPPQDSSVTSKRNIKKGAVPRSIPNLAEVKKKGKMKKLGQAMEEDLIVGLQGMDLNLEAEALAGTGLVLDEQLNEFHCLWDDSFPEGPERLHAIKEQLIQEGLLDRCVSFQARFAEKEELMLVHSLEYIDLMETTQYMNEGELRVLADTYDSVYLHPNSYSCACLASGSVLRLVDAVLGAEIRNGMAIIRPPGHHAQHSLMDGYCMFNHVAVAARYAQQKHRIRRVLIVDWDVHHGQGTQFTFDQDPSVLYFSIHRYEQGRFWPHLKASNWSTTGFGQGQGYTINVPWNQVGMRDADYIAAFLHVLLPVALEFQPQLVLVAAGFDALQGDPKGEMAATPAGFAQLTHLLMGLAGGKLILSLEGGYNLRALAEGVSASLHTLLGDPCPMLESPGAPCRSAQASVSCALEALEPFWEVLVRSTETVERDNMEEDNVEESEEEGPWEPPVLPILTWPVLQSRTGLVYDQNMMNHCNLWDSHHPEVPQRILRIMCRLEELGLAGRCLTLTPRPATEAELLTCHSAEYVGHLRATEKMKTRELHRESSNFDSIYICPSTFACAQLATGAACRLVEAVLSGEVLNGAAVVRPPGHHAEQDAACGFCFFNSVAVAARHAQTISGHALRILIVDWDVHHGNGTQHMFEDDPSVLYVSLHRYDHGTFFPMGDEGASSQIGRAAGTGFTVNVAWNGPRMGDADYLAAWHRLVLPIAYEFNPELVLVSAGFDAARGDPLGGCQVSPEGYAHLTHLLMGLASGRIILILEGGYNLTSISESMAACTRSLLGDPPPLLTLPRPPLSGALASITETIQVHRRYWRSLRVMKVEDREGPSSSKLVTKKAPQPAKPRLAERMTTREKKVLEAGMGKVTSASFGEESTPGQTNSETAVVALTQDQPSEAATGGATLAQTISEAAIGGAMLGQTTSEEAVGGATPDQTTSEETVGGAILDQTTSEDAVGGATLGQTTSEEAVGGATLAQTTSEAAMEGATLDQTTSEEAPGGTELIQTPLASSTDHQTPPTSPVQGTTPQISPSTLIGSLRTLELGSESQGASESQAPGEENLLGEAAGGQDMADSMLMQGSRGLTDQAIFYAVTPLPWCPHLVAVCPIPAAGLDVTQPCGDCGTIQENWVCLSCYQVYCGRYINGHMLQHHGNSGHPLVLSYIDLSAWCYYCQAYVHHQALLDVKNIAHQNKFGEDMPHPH

[6] = target: T1, Serine/threonine-protein kinase mTOR; assay: Inhibition of mTOR in human MDA-MB-231 cells assessed as decrease in p70s6k phosphorylation at […] residue at 5 to 20 uM by Western blot analysis; format: cell-based; conditions: dose 5-20 µM
MDA-MB-231 [7] = assay: Induction of autophagy in human MDA-MB-231 cells transfected with GFP-LC3 assessed as accumulation of LC3 puncta at 5 to 20 uM after 48 hrs by Western blot analysis; format: functional, cell-based; conditions: dose 5-20 µM
MDA-MB-231 [8] = assay: Induction of autophagy in human MDA-MB-231 cells transfected with GFP-LC3 assessed as decrease in SQSTM1/p62 expression at 5 to 20 uM after 48 hrs by Western blot analysis; format: functional, cell-based; conditions: dose 5-20 µM
MDA-MB-231 [9] = assay: Induction of apoptosis in human MDA-MB-231 cells by annexin V/propidium iodide staining-based flow cytometry analysis; format: functional, cell-based; conditions: dose 5-20 µM
MDA-MB-231 [10] = assay: Induction of apoptosis in human MDA-MB-231 cells assessed as necrotic cells at 5 uM by annexin V/propidium iodide staining-based flow cytometry analysis (reference value: 0.099 %); format: functional
MDA-MB-231 [11] = assay: Induction of apoptosis in human MDA-MB-231 cells assessed as live cells at 20 uM by annexin V/propidium iodide staining-based flow cytometry analysis (reference value: 96.7 %); format: functional
MDA-MB-231 [12] = assay: Induction of apoptosis in human MDA-MB-231 cells assessed as upregulation of BAX at 5 to 20 uM by Western blot analysis; format: functional, cell-based; conditions: dose 5-20 µM
MDA-MB-231 [13] = assay: Induction of apoptosis in human MDA-MB-231 cells assessed as downregulation of Bcl-2 at 5 to 20 uM by Western blot analysis; format: functional, cell-based; conditions: dose 5-20 µM
MDA-MB-231 [14] = assay: Induction of apoptosis in human MDA-MB-231 cells assessed as increase in PARP cleavage at 5 to 20 uM by Western blot analysis; format: functional, cell-based; conditions: dose 5-20 µM
MDA-MB-231 [15] = assay: Induction of apoptosis in human MDA-MB-231 cells assessed as increase in caspase 3 cleavage at 5 to 20 uM by Western blot analysis; format: functional, cell-based; conditions: dose 5-20 µM
MDA-MB-231 [16] = assay: Induction of apoptosis in human MDA-MB-231 cells assessed as increase in caspase 8 cleavage at 5 to 20 uM by Western blot analysis; format: functional, cell-based; conditions: dose 5-20 µM
MDA-MB-231 [17] = assay: Inhibition of cell migration in human MDA-MB-231 cells after 48 hrs by wound healing assay; format: functional, cell-based; conditions: dose 5-20 µM
MDA-MB-231 [18] = assay: Inhibition of cell migration in human MDA-MB-231 cells after 48 hrs by transwell assay; format: functional, cell-based; conditions: dose 5-20 µM

T2 sequence (Q92769 whole entry): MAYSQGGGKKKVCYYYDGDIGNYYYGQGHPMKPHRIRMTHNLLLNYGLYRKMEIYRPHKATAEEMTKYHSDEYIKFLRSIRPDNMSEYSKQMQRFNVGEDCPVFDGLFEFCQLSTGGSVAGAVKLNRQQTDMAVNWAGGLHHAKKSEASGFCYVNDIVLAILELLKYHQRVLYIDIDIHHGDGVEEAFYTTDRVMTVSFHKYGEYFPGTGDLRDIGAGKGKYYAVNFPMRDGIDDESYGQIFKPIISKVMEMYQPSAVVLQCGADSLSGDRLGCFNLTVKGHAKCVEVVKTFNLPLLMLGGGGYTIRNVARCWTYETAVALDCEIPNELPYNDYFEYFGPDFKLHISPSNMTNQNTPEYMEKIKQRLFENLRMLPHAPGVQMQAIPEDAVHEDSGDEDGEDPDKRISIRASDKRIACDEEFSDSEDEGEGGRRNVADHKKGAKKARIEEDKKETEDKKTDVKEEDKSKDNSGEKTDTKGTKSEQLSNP
Sequence of Histone deacetylase 1 (Q13547 whole entry): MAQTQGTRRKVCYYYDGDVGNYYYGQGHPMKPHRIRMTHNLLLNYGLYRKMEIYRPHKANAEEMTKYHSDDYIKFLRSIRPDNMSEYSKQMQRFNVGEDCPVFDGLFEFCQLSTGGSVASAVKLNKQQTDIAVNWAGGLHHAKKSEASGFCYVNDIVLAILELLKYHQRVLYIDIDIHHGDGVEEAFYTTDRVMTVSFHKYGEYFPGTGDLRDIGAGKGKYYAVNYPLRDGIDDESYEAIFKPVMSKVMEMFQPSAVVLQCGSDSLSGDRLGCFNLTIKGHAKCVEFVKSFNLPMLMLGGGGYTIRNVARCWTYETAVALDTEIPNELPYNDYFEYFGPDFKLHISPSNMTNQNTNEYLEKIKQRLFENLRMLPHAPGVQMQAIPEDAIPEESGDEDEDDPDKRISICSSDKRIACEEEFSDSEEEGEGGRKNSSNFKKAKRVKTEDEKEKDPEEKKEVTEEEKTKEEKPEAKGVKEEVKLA

IC50 [1]: 134 nM
inhibition [2]: 91.4%
IC50 (MDA-MB-436): 10600 nM
Activity (Histone deacetylase 2 [3]): inactive
IC50 (Histone deacetylase 1): 359 nM
IC50 (Histone deacetylase 2 [4]): 374 nM
inhibition [5]: Active
inhibition [6]: Active
SMILES: CN1CCN(c2nc(-c3ccc(C(=O)NO)cc3)nc3cc(Cl)ccc23)CC1
Activity (MCF-10A): Non-Toxic
Activity (MDA-MB-231 [7]): Active
Activity (MDA-MB-231 [8]): Active
Activity (MDA-MB-231 [9]): Dose-Dependent Effect
Activity (MDA-MB-231 [10]): 0.64%
Activity (MDA-MB-231 [11]): 53.9%
Activity (MDA-MB-231 [12]): Active
Activity (MDA-MB-231 [13]): Active
Activity (MDA-MB-231 [14]): Active
Activity (MDA-MB-231 [15]): Active
Activity (MDA-MB-231 [16]): Active
inhibition (MDA-MB-231 [17]): Active
inhibition (MDA-MB-231 [18]): Active
